pIC50: −log10 of the molar value. Like-named read-outs stand apart in the source and are kept apart here. Values belong to the compound of their own block, whether it stands above or below them.
Assays:
HT-29 cells = experiment: Growth inhibition of HT-29 cells (SRB assay; trypan blue counting in time course); type: cell-based, human; settings: for Growth Inhibition: Table 9 qualitative profile
Cyclooxygenase (COX) = target: T1, Cyclooxygenase (COX) (Ovis aries, UniProt P05979); experiment: COX inhibition assay, single dose screen (Table 2); type: biochemical; settings: for COX Inhibition: Table 9 qualitative profile
T1 sequence (P05979 25-600): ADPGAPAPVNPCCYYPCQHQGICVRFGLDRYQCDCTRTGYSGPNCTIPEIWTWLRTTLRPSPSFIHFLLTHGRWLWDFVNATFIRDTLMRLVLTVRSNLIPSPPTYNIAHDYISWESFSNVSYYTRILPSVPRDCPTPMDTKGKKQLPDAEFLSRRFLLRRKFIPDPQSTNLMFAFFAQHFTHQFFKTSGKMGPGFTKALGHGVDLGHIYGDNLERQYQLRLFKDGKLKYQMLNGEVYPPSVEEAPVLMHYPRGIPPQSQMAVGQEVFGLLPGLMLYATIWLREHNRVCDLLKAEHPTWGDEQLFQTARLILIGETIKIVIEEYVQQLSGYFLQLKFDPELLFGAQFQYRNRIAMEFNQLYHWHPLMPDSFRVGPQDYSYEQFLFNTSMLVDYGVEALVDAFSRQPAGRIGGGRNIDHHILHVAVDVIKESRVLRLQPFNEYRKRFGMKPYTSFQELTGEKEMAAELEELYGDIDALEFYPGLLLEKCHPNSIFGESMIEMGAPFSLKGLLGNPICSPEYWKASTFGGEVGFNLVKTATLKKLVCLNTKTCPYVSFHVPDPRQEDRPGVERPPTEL

[1] = system: HT-29 colon adenocarcinoma cells; experiment: Apoptosis by DNA fragmentation assay in HT-29 cells; type: cell-based, human; settings: Table 9 qualitative profile; also: key: −: Not active; +: Slightly active; + +: Moderately active; + + +: Strongly active; + + + +: Highly active
[2] = target: T2, cGMP binding sites of GST-cGB-PDE5 fusion protein (Homo sapiens, UniProt O76074); experiment: cGMP binding assay with GST-cGB-PDE5 fusion protein; settings: for competition with cGMP binding at high concentration: 100 μM, cGMP 2 μM
T2 construct: made in house; host or cells: E. coli BL21 (DE3)

[3] = target: cGMP PDE purified from human colon HT-29 cultured tumor cells (Homo sapiens, UniProt O76074); experiment: cGMP PDE inhibition assay; type: biochemical; settings: for PDE Inhibition: Table 9 qualitative profile
[4] = system: premalignant lesions in mouse mammary gland organ culture; experiment: Mammary gland organ culture model; as to mammary gland organ culture: key: −: Not active; +: Slightly active; + +: Moderately active; + + +: Strongly active; + + + +: Highly active; type: cell-based; settings: for inhibition of formation of premalignant lesions: FIG. 17
Source text: Test compounds identified by the above methods can be tested for antineoplastic activity by their ability to inhibit the incidence of pre-neoplastic lesions in a mammary gland organ culture system. This mouse mammary gland organ culture technique has been successfully used by other investigators to study the effects of known antineoplastic agents such as certain NSAIDs, retinoids, tamoxifen, selenium, and certain natural products, and is useful for validation of the screening method of the present invention.
For example, female BALB/c mice can be treated with a combination of estradiol and progesterone daily, in order to prime the glands to be responsive to hormones in vitro. The animals are sacrificed, and thoracic mammary glands are excised aseptically and incubated for ten days in growth media supplemented with insulin, prolactin, hydrocortisone, and aldosterone. DMBA (7,12-dimethylbenz(a)anthracene) is added to medium to induce the formation of premalignant lesions. Fully developed glands are then deprived of prolactin, hydrocortisone, and aldosterone, resulting in the regression of the glands but not the pre-malignant lesions.
The test compound is dissolved in DMSO and added to the culture media for the duration of the culture period. At the end of the culture period, the glands are fixed in 10% formalin, stained with alum carmine, and mounted on glass slides. The incidence of forming mammary lesions is the ratio of the glands with mammary lesions to […]. The incidence of mammary lesions in test compound treated glands is compared with that of the untreated glands.
The extent of the area occupied by the mammary lesions can be quantitated by projecting an image of the gland onto a digitation pad. The area covered by the gland is traced on the pad and considered as 100% of the area. The space covered by each of the non-regressed structures is also outlined on the digitization pad and quantitated by the computer.
Mammary gland organ culture experiment were performed as previously described (Mehta and Moon, Cancer Research, 46: 5832-5835, 1986).

[5] = system: SW-480 colon adenocarcinoma cells; experiment: Apoptosis fold induction protocol (DNA fragmentation, Table 4); settings: 100 μM; cell line not given
[6] = system: Peak B's (from SW480, HTB-26, and LnCAP); experiment: FPLC-isolated Peak B PDE activity from three neoplastic cell lines; type: biochemical
Method: The novel Peak B was also isolated from two other neoplastic cell lines, a breast cancer cell line, HTB-26, and a prostate cancer cell line, LnCAP, by a procedure similar to the one above used to isolate it from SW480. The protocol was modified in several respects. To provide even greater reproducibility to allow comparison of different cell lines, a Pharmacia AKTA FPLC was used to control sample loading and elution on an 18 mL DEAE TrisAcryl M column. SW840 was run by this same procedure multiple times to provide a reference of Peak B. 200-400 million cells of SW480 were used for the profiles. 70 million cells of LnCAP were used for a profile (see FIGS. 22 and 23), and in a separate experiment 32 million cells of HTB-26 were used for a profile (see FIGS. 20 and 21). After re-suspending cells in homogenization buffer, samples were manually homogenized. FPLC buffer A was 8 mM TRIS-acetate, 5 mM Mg acetate, 0.1 mM EDTA, pH 7.5 and buffer B was 8 mM TRIS-acetate, 5 mM Mg acetate, 0.1 mM EDTA, 1 M Na acetate, pH 7.5. Supernatants were loaded onto the column at 1 mL per minute, followed by a wash with 60 mL buffer A at 1 mL per minute. A gradient was run from 0-15% buffer B in 60 mL, 15-50% buffer B in 60 mL, and 50-100% buffer B in 16 mL. During the gradient 1.5 mL fractions were collected.

[7] = target: T3, PDE Peak A (PDE5) from SW480 cells (Homo sapiens, UniProt O76074); experiment: cGMP hydrolysis by PDE Peak A (PDE5) isolated from SW480 cells; type: biochemical
T3 construct: To isolate the novel phosphodiesterase from SW480, approximately four hundred million SW480 cells were grown to confluence; endogenous in cells; host or cells: SW480 colon cancer cells; 105,000 g supernatant, DEAE-Trisacryl M fraction

Compound: CCCCOC1C2OP(=O)(O)OCC2OC1n1cnc2c(=O)[nH]c(N)nc21 (centres unmarked) [2′-O-butyl-cGMP]
competition with cGMP in binding of GST-cGB-PDE5 ([2]; 3H-cGMP 2 μM): did not compete

Compound: CC1=C(CC(=O)N(C2CCCCC2)C2CCCCC2)c2cc(F)ccc2/C1=C\c1ccc(S(C)(=O)=O)cc1 [F, (Z)-5-Fluoro-2-methyl-1-(p-methylsulfonylbenzylidene)-3-indenylacetamide, N,N′-dicyclohexyl]
Growth Inhibition (HT-29 cells): + +
PDE Inhibition [3]: −

Compound: CC1=C(CC(=O)O)c2cc(F)ccc2/C1=C\c1ccc([S+](C)[O-])cc1 (centres unmarked) [sulindac, reference compound]
inhibition of formation of premalignant lesions [4]: effectively inhibit

Compound: CCCCCC[C@@H]([C@@H](C)O)n1cnc2c(N)ncnc21 (racemic) [EHNA]
Fold induction at 100 μM (apoptosis) [5]: <2.0 fold

Compound: COc1ccc(C2CNC(=O)C2)cc1OC1CCCC1 (centres unmarked) [Rolipram]
inhibition of cAMP PDE activity in Peak B fractions [6]: inhibited most of the cAMP PDE activity

Compound: O=C([O-])C1CCN(c2nc(NCc3ccc4c(c3)OCO4)c3cc(Cl)ccc3n2)CC1.[Na+] [Example E4021, reference compound]
% Inhibition at 100 μM (growth) (HT-29 cells): <50%
sensitivity of Peak B cGMP PDE activity ([6]; 100 nM, 0.25 μM cGMP): resistant

Compound: CC1=C(CC(=O)O)c2cc(F)ccc2/C1=C\c1ccc(Cl)cc1 [Compound C, (Z)-5-Fluoro-2-methyl-1-(p-chlorobenzylidene)-3-acetic acid]
% Inhibition at 100 μM (growth) (HT-29 cells): 80%
% Inhibition at 10 μM (cGMP PDE) [3]: <25%

Compound: Nc1ncnc2c1ncn2[C@@H]1O[C@@H]2COP(=O)(O)O[C@H]2[C@H]1O [Cyclic AMP]
competition with cGMP in binding of GST-cGB-PDE5 [2]: did not compete

Compound: CCCc1nn(C)c2c(=O)[nH]c(-c3cc(S(=O)(=O)N4CCN(C)CC4)ccc3OCC)nc12 [Sildenafil, reference compound]
inhibition of activity of Peak A [7]: inhibited activity of Peak A

Compound: 5-fluoro-2-methyl-1-(p-methylsulfinylbenzylidene)-3-indenylacetic acid [Sulindac sulfide, reference compound]
Apoptosis [1]: + + +
% Inhibition at 100 μM (cyclooxygenase) (Cyclooxygenase (COX)): 97%
COX Inhibition (Cyclooxygenase (COX)): + + + +
competitive (with cGMP) inhibition/binding, Peak A [7]: competitively inhibited
inhibition of formation of premalignant lesions [4]: inactive
% Inhibition at 10 μM (cGMP PDE) [3]: 97%
PDE Inhibition [3]: + + +
pIC50 ([3]; read-out: IC50 for inhibition of cGMP PDE): 4.77

Further lines, with some results ahead:

% Inhibition at 100 μM (cyclooxygenase) (Cyclooxygenase (COX)): <25%
Compound: CC(=O)NC(CSC12CC(=O)OC1(C)/C(=C/c1ccc(S(C)(=O)=O)cc1)c1ccc(F)cc12)C(=O)O (racemic) [D, rac-(E)-1-(butan-1′,4′-olido)-[3′,4′:1,2]-6-fluoro-2-methyl-3-(p-methylsulfonylbenzylidene)-1S-indanyl-N-acetylcysteine]
% Inhibition at 100 μM (growth) (HT-29 cells): 78%
Growth Inhibition (HT-29 cells): + +

% Inhibition at 100 μM (cyclooxygenase) (Cyclooxygenase (COX)): 94%
COX Inhibition (Cyclooxygenase (COX)): + + +
Compound: Clc1cccc(Nc2nnc(-c3ccccc3)c3ccccc23)c1 [MY5445, 1-(3-chloroanilino)-4-phenyphthalazine, reference compound]
Apoptosis [1]: + + +
Growth Inhibition (HT-29 cells): + + +

competition with cGMP binding at high concentration [2]: partially compete
Compound: Nc1nc2c(nc(Br)n2[C@@H]2O[C@@H]3COP(=O)(O)O[C@H]3[C@H]2O)c(=O)[nH]1 [Example 8-bromo-cGMP]

competition with cGMP in binding of GST-cGB-PDE5 ([2]; 3H-cGMP 2 μM): did not compete
Compound: CCCCOC1C2OP(=O)(O)OCC2OC1n1cnc2c(N)ncnc21 (centres unmarked) [2′-O-butyl-cAMP]

PDE Inhibition [3]: −
Compound: rac-(E)-1-(butan-1′,4′-olido)-[3′,4′:1,2]-6-fluoro-2-methyl-3-(p-methylsulfonylbenzylidene)-1S-indanyl-glutathione)
Growth Inhibition (HT-29 cells): + +

competition with cGMP binding at high concentration [2]: partially compete
Compound: O=c1[nH]cnc2c1ncn2[C@@H]1O[C@@H]2COP(=O)(O)O[C@H]2[C@H]1O [Cyclic IMP]

competition with cGMP in binding of GST-cGB-PDE5 ([2]; 3H-cGMP 2 μM): did not compete
Compound: O=c1ccn([C@@H]2O[C@@H]3COP(=O)(O)O[C@H]3[C@H]2O)c(=O)[nH]1 [cUMP]

competition with cGMP in binding of GST-cGB-PDE5 ([2]; 3H-cGMP 2 μM): did not compete
Compound: Nc1ccn([C@@H]2O[C@@H]3COP(=O)(O)O[C@H]3[C@H]2O)c(=O)n1 [cCMP]

PDE Inhibition [3]: −
Compound: ribo-(E)-1-Triazolo-[2′,3′:1″,3″]-1-(butan-1′,4′-olido)-[3′,4′:1,2]-6-fluoro-2-methyl-3-(p-methylsulfonylbenzylidene)-indan [G]
Apoptosis [1]: + +
Growth Inhibition (HT-29 cells): + +
Mammary Gland Organ Culture ([4]; Table 9 qualitative profile): + + +

Source: patent US20030232862A1 (priority 2002, published 2003)
